Data taken from US20250368678A1, “19-NOR-C3,3-DISUBSTITUTED C21-AZACYCLO-S[…] AND METHOD FOR USING SAME” (SHANDONG LUYE PHARMACEUTICAL CO., LTD., priority 2022, published 2025).

Tested on: not listed separately
Experiment: In vitro liver microsomal stability assay, human
Type: in vitro ADME
Settings: Human liver microsomes
Procedure: (§1) 1) Preparation of working solutions of test samples: The test samples were diluted with acetonitrile to 100 M.
(§2) 2) Preparation of a working solution of liver microsomes: liver microsomes were diluted with 100 mM phosphate-buffered saline to 0.56 mg/mL.
(§3) 3) Preparation of a working solution of reduced nicotinamide adenine dinucleotide (NADPH): A proper amount of NADPH was weighed out and diluted with phosphate-buffered saline to 20 mM, and an equal volume of a 60 mM MgCl2 solution was added.
(§4) 4) Preparation of a stop solution: Tolbutamide was diluted with acetonitrile to 20 ng/mL, serving as a stop solution containing an internal standard.
(§5) 1) Incubation anti-adsorption EP tubes were prepared and labeled with species, test/control sample, time points (0, 5, 10, 20, 30, 60 min, Blank60, and NCF60), etc.
(§6) 2) 2 L of test or control sample working solution, diluted with acetonitrile to 100 M, and 178 L of liver microsome working solution were added to each tube. For the Blank60 tube, 2 L of acetonitrile was added instead of a test sample. The tubes were pre-incubated in a 37° C. water bath for about 10 min, with each sample tested in triplicate.
(§7) 3) After the pre-incubation was complete, 20 L of NADPH working solution was added to each tube except for the 0 min and NCF60 tubes to start reactions, and 20 L of phosphate-buffered saline (containing 30 mM MgCl2) was added to the NCF60 tube. In the incubation system, the final concentrations of the test and control samples were 1 M, the final concentration of liver microsomes was 0.5 mg/mL, the final concentration of NADPH was 1 mM, and the final concentration of MgCl2 was 3 mM.
(§8) 4) For the 0 min sample, 600 L of stop solution was added before adding the NADPH working solution. After each sample was incubated for its respective time, 600 L of stop solution was added to stop the reaction.
(§9) 5) After the reaction was stopped, each sample was vortexed for 30 s and then centrifuged at 13,500 rpm for 10 min. 100 L of the supernatant was transferred to an EP tube, and 100 L Milli-Q water was added. The mixture was well mixed by vortexing and analyzed by LC-MS/MS.
(§10) 6) Testosterone and dextromethorphan were used as positive control samples under the same conditions to assess the stability and reliability of the system.
(§11) Parameters of the test samples, including their half-lives, intrinsic clearance rates in liver microsomes, and hepatic intrinsic clearance rates, were calculated based on the percentage of test sample remaining.

Point of comparison: `C[C@@]1(O)CC[C@H]2[C@H](CC[C@@H]3[C@@H]2CC[C@]2(C)[C@@H](C(=O)Cn4cnn(-c5cccc(C(N)=O)c5)c4=O)CC[C@@H]32)C1` [Compound 19], CLint scaled at 1 µM 26 mL/min/kg. Against it:
- C[C@@]1(O)CC[C@@]2(C)[C@@H](CC[C@@H]3[C@@H]2CC[C@]2(C)[C@@H](C(=O)Cn4cnn(-c5cccc(F)c5)c4=O)CC[C@@H]32)C1 [Compound 33] — lower, < 6.7 mL/min/kg
- C[C@@]1(O)CC[C@H]2[C@H](CC[C@@H]3[C@@H]2CC[C@]2(C)[C@@H](C(=O)Cn4cnn(C5CCCCC5)c4=O)CC[C@@H]32)C1 [Compound 30] — 3.5-fold higher, 91 mL/min/kg

Point of comparison: `C[C@@]1(O)CC[C@H]2[C@H](CC[C@@H]3[C@@H]2CC[C@]2(C)[C@@H](C(=O)Cn4cnn(C5CCCCC5)c4=O)CC[C@@H]32)C1` [Compound 30], half-life at 1 µM 17.5 min. Against it:
- C[C@@]1(O)CC[C@@]2(C)[C@@H](CC[C@@H]3[C@@H]2CC[C@]2(C)[C@@H](C(=O)Cn4cnn(-c5cccc(F)c5)c4=O)CC[C@@H]32)C1 [Compound 33] — higher, > 186 min

`C[C@@]1(O)CC[C@H]2[C@H](CC[C@@H]3[C@@H]2CC[C@]2(C)[C@@H](C(=O)Cn4cnn(-c5cccc(C(N)=O)c5)c4=O)CC[C@@H]32)C1` [Compound 19] showed a T1/2 of 28.5 min.

Same assay, conditions: Human liver microsomes 0.5 mg/mL, NADPH

Point of comparison: `C[C@@]1(O)CC[C@H]2[C@H](CC[C@@H]3[C@@H]2CC[C@]2(C)[C@@H](C(=O)Cn4cnn(C5CCCCC5)c4=O)CC[C@@H]32)C1` [Compound 30], “Remaining amount % at 60 min” value 9.5%. Against it:
- C[C@@]1(O)CC[C@@]2(C)[C@@H](CC[C@@H]3[C@@H]2CC[C@]2(C)[C@@H](C(=O)Cn4cnn(-c5cccc(F)c5)c4=O)CC[C@@H]32)C1 [Compound 33] — higher, 85.8%
- C[C@@]1(O)CC[C@H]2[C@H](CC[C@@H]3[C@@H]2CC[C@]2(C)[C@@H](C(=O)Cn4cnn(-c5cccc(C(N)=O)c5)c4=O)CC[C@@H]32)C1 [Compound 19] — higher, 42.2%

Same assay, conditions: Human liver microsomes; read-out: CLint(mic)

Point of comparison: `C[C@@]1(O)CC[C@H]2[C@H](CC[C@@H]3[C@@H]2CC[C@]2(C)[C@@H](C(=O)Cn4cnn(-c5cccc(C(N)=O)c5)c4=O)CC[C@@H]32)C1` [Compound 19], microsomal CLint at 1 µM 29 µL/min/mg. Against it:
- C[C@@]1(O)CC[C@@]2(C)[C@@H](CC[C@@H]3[C@@H]2CC[C@]2(C)[C@@H](C(=O)Cn4cnn(-c5cccc(F)c5)c4=O)CC[C@@H]32)C1 [Compound 33] — lower, < 7.5 µL/min/mg
- C[C@@]1(O)CC[C@H]2[C@H](CC[C@@H]3[C@@H]2CC[C@]2(C)[C@@H](C(=O)Cn4cnn(C5CCCCC5)c4=O)CC[C@@H]32)C1 [Compound 30] — 2.7-fold higher, 79 µL/min/mg

Target: T1, α4β3δ GABA receptors (α4β3δ-HEK-FlpIn-TRex stable cell strain) (Homo sapiens, UniProt P28472+P48169)
T1 construct: expressed in transfected cells
T1 sequence (P48169 36-554): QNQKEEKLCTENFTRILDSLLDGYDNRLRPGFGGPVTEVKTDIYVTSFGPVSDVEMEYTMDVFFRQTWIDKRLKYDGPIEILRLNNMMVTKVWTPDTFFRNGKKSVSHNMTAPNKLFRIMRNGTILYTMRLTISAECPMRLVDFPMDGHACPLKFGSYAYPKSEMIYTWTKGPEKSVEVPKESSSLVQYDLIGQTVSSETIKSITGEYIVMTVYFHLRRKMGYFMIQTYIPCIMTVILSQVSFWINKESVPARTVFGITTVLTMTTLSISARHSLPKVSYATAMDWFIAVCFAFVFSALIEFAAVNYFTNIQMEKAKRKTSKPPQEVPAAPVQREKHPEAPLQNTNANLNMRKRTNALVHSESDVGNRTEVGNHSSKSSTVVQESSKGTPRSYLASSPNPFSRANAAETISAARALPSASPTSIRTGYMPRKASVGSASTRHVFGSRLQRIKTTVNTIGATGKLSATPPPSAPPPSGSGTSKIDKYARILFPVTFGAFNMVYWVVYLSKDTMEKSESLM
T1 sequence (P28472 26-473): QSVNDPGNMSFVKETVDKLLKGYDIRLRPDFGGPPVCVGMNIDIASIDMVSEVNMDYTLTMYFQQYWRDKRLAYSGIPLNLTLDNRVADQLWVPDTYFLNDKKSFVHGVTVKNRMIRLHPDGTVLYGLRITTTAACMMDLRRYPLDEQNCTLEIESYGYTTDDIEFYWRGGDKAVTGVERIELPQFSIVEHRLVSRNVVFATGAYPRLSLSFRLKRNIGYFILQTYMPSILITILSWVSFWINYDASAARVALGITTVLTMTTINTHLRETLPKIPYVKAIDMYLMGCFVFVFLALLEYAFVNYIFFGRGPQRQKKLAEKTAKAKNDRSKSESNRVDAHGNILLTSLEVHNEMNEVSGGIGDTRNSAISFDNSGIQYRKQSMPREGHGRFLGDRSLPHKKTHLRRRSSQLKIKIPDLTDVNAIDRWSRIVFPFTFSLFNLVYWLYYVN
T1 sequence (O14764 25-452 partner): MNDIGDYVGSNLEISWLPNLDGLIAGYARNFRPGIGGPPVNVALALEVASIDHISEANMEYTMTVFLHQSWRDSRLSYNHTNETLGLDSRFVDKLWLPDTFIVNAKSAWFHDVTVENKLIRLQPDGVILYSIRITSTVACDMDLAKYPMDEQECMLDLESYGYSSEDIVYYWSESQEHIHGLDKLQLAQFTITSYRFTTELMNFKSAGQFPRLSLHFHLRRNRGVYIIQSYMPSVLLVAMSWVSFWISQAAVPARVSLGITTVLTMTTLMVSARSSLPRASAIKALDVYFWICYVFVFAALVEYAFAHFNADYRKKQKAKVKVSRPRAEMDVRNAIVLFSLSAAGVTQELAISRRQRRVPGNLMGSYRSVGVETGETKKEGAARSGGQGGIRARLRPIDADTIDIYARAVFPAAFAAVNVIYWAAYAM
Experiment: Whole-cell patch clamp, extrasynaptic functional activity (positive allosteric regulation of GABA-induced current)
Type: cell-based
Settings: patch clamp -60 mV, GABA at EC10-20, α4β3δ-HEK-FlpIn-TRex cells
Procedure: (§12) The α4β3δ-HEK-FlpIn-TRex stable cell strain was cultured in DMEM+10% FBS complete culture medium, with the selective antibiotics being 10 μg/mL Blasticidin, 100 µg/mL Zeocin, 100 µg/mL Hygromycin, and 0.2 μg/mL Puromycin. The α1β2γ2-CHO-TRex stable cell strain was cultured in DMEM/F12+10% FBS complete culture medium, with the selective antibiotics being 10 μg/mL Blasticidin, 100 μg/mL Zeocin, 300 μg/mL Hygromycin, and […] Puromycin.
(§13) The day before the patch clamp experiment, cells were seeded onto 12 mm polylysine-coated coverslips and then cultured in 35 mm culture dishes, and tetracycline ([…]) was added to induce the expression of GABA receptors. The extracellular fluid had the following composition (in mM): 140 NaCl, 3 KCl, 1.5 MgCl2, 2 CaCl2, 10 HEPES, and 10 Glucose. After thorough mixing, NaOH was added to adjust the pH to 7.4, and sucrose was added to adjust the osmotic pressure to 300-320 mOsm. The fluid was stored at 4° C. The electrode internal solution had the following composition (in mM): 145 KCl, 1 MgCl2, 5 EGTA, 10 HEPES, and 5 MgATP. After thorough mixing, KOH was added to adjust the pH to 7.3, and sucrose was added to adjust the osmotic pressure to 290-300 mOsm. The solution was filtered through a […] before use.
(§14) Whole-cell patch clamp recording was mainly employed in this experiment. The membrane potential was clamped at −60 mV, and receptors were activated using GABA at an EC10-20 concentration ([…]). The test compounds were dissolved in 0.1% DMSO, and perfusion was performed for 30 s prior to GABA stimulation. Finally, the positive allosteric regulating effects of the test compounds on α1β2γ2 or α4β3δ were determined.
(§15) The experimental result for each concentration was expressed as a fold increase in the GABA-induced current caused by the compound. […] At least 5 concentrations are tested to obtain a complete EC50 curve and EC50 values. All experiments were repeated on no less than 3 cells, and data processing was completed using GraphPad prism software. The dose-response curves were fitted using the Hill equation, and the half-maximal activating concentration EC50 and Emax were finally obtained.

Point of comparison: `C[C@@]1(O)CC[C@@]2(C)[C@@H](CC[C@@H]3[C@@H]2CC[C@]2(C)[C@@H](C(=O)Cn4cnn(-c5cccc(F)c5)c4=O)CC[C@@H]32)C1` [Compound 33], EC50 96 nM. Against it:
- C[C@@]1(O)CC[C@H]2[C@H](CC[C@@H]3[C@@H]2CC[C@]2(C)[C@@H](C(=O)Cn4cnn(C5CCCCC5)c4=O)CC[C@@H]32)C1 [Compound 30] — 2.5-fold higher, 237 nM

Point of comparison: `C[C@@]1(O)CC[C@H]2[C@H](CC[C@@H]3[C@@H]2CC[C@]2(C)[C@@H](C(=O)Cn4cnn(-c5cccc(C(N)=O)c5)c4=O)CC[C@@H]32)C1` [Compound 19], Emax 386%. Against it:
- C[C@@]1(O)CC[C@@]2(C)[C@@H](CC[C@@H]3[C@@H]2CC[C@]2(C)[C@@H](C(=O)Cn4cnn(-c5cccc(F)c5)c4=O)CC[C@@H]32)C1 [Compound 33] — higher, 936%
- C[C@@]1(O)CC[C@H]2[C@H](CC[C@@H]3[C@@H]2CC[C@]2(C)[C@@H](C(=O)Cn4cnn(C5CCCCC5)c4=O)CC[C@@H]32)C1 [Compound 30] — higher, 685%

Target: T2, α1β2γ2 GABA receptors (α1β2γ2-CHO-TRex stable cell strain) (Homo sapiens, UniProt P14867+P47870)
T2 construct: expressed in transfected cells
T2 sequence (P14867 28-456): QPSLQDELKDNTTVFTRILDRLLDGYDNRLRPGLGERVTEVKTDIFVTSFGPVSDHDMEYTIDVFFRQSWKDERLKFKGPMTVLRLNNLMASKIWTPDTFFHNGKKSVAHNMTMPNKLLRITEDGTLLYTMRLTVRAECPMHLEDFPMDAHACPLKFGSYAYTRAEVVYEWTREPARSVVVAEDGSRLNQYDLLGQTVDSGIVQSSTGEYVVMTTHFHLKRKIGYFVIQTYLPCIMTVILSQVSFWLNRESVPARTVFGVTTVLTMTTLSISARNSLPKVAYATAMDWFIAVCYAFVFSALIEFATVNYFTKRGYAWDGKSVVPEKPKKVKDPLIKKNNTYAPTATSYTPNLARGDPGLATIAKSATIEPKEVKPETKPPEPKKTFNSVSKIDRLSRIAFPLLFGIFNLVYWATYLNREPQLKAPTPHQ
T2 sequence (P47870 25-512 limits assumed): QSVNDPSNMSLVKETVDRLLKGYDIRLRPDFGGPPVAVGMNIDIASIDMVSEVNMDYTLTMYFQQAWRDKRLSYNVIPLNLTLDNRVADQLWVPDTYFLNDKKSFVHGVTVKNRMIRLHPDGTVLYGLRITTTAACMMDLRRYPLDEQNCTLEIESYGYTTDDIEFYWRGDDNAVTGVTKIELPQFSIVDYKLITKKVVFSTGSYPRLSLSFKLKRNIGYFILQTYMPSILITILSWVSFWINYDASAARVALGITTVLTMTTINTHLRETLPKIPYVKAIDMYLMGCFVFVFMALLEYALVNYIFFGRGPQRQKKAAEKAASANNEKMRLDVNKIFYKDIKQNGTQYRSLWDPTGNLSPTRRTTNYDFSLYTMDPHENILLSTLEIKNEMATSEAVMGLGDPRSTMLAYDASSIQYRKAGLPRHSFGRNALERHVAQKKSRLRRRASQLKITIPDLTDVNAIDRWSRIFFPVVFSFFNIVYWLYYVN
T2 sequence (P18507 40-475 partner): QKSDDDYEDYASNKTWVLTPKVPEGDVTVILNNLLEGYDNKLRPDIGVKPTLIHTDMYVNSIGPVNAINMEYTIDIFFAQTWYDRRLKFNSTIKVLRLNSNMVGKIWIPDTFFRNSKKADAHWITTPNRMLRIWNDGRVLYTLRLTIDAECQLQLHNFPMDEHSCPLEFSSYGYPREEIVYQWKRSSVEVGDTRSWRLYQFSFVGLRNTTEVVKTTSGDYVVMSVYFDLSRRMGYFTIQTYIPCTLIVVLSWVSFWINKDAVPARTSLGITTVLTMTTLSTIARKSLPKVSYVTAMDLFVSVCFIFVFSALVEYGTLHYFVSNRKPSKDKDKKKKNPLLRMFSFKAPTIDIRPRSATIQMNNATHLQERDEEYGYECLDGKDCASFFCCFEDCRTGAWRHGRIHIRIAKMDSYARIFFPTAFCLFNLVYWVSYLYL
Experiment: Whole-cell patch clamp, intrasynaptic functional activity (positive allosteric regulation of GABA-induced current)
Type: cell-based
Settings: patch clamp -60 mV, GABA at EC10-20, α1β2γ2-CHO-TRex cells
Procedure: as §12, §13, §14, §15

Point of comparison: `C[C@@]1(O)CC[C@@]2(C)[C@@H](CC[C@@H]3[C@@H]2CC[C@]2(C)[C@@H](C(=O)Cn4cnn(-c5cccc(F)c5)c4=O)CC[C@@H]32)C1` [Compound 33], EC50 598 nM. Against it:
- C[C@@]1(O)CC[C@H]2[C@H](CC[C@@H]3[C@@H]2CC[C@]2(C)[C@@H](C(=O)Cn4cnn(C5CCCCC5)c4=O)CC[C@@H]32)C1 [Compound 30] — within 1.5-fold, 585 nM

Point of comparison: `C[C@@]1(O)CC[C@@]2(C)[C@@H](CC[C@@H]3[C@@H]2CC[C@]2(C)[C@@H](C(=O)Cn4cnn(-c5cccc(F)c5)c4=O)CC[C@@H]32)C1` [Compound 33], Emax 495%. Against it:
- C[C@@]1(O)CC[C@H]2[C@H](CC[C@@H]3[C@@H]2CC[C@]2(C)[C@@H](C(=O)Cn4cnn(-c5cccc(C(N)=O)c5)c4=O)CC[C@@H]32)C1 [Compound 19] — higher, 764%
- C[C@@]1(O)CC[C@H]2[C@H](CC[C@@H]3[C@@H]2CC[C@]2(C)[C@@H](C(=O)Cn4cnn(C5CCCCC5)c4=O)CC[C@@H]32)C1 [Compound 30] — higher, 873%

Tested on: not listed separately
Experiment: In vitro liver microsomal stability assay, rat
Type: in vitro ADME
Settings: Rat liver microsomes
Procedure: as §1, §2, §3, §4, §5, §6, §7, §8, §9, §10, §11

Point of comparison: `C[C@@]1(O)CC[C@H]2[C@H](CC[C@@H]3[C@@H]2CC[C@]2(C)[C@@H](C(=O)Cn4cnn(-c5cccc(C(N)=O)c5)c4=O)CC[C@@H]32)C1` [Compound 19], CLint scaled at 1 µM 141 mL/min/kg. Against it:
- C[C@@]1(O)CC[C@@]2(C)[C@@H](CC[C@@H]3[C@@H]2CC[C@]2(C)[C@@H](C(=O)Cn4cnn(-c5cccc(F)c5)c4=O)CC[C@@H]32)C1 [Compound 33] — 4.9-fold lower, 29 mL/min/kg
- C[C@@]1(O)CC[C@H]2[C@H](CC[C@@H]3[C@@H]2CC[C@]2(C)[C@@H](C(=O)Cn4cnn(C5CCCCC5)c4=O)CC[C@@H]32)C1 [Compound 30] — 2.3-fold higher, 329 mL/min/kg

Point of comparison: `C[C@@]1(O)CC[C@H]2[C@H](CC[C@@H]3[C@@H]2CC[C@]2(C)[C@@H](C(=O)Cn4cnn(C5CCCCC5)c4=O)CC[C@@H]32)C1` [Compound 30], half-life at 1 µM 7.6 min. Against it:
- C[C@@]1(O)CC[C@@]2(C)[C@@H](CC[C@@H]3[C@@H]2CC[C@]2(C)[C@@H](C(=O)Cn4cnn(-c5cccc(F)c5)c4=O)CC[C@@H]32)C1 [Compound 33] — 11-fold higher, 85.6 min

Molecule `C[C@@]1(O)CC[C@H]2[C@H](CC[C@@H]3[C@@H]2CC[C@]2(C)[C@@H](C(=O)Cn4cnn(-c5cccc(C(N)=O)c5)c4=O)CC[C@@H]32)C1` [Compound 19] has a T1/2 of 17.6 min.

Same assay, conditions: Rat liver microsomes 0.5 mg/mL, NADPH

Point of comparison: `C[C@@]1(O)CC[C@@]2(C)[C@@H](CC[C@@H]3[C@@H]2CC[C@]2(C)[C@@H](C(=O)Cn4cnn(-c5cccc(F)c5)c4=O)CC[C@@H]32)C1` [Compound 33], “Remaining amount % at 60 min” value 62.2%. Against it:
- C[C@@]1(O)CC[C@H]2[C@H](CC[C@@H]3[C@@H]2CC[C@]2(C)[C@@H](C(=O)Cn4cnn(-c5cccc(C(N)=O)c5)c4=O)CC[C@@H]32)C1 [Compound 19] — lower, 9.5%
- C[C@@]1(O)CC[C@H]2[C@H](CC[C@@H]3[C@@H]2CC[C@]2(C)[C@@H](C(=O)Cn4cnn(C5CCCCC5)c4=O)CC[C@@H]32)C1 [Compound 30] — lower, 7.4%

Same assay, conditions: Rat liver microsomes; read-out: CLint(mic)

Point of comparison: `C[C@@]1(O)CC[C@@]2(C)[C@@H](CC[C@@H]3[C@@H]2CC[C@]2(C)[C@@H](C(=O)Cn4cnn(-c5cccc(F)c5)c4=O)CC[C@@H]32)C1` [Compound 33], microsomal CLint at 1 µM 16 µL/min/mg. Against it:
- C[C@@]1(O)CC[C@H]2[C@H](CC[C@@H]3[C@@H]2CC[C@]2(C)[C@@H](C(=O)Cn4cnn(-c5cccc(C(N)=O)c5)c4=O)CC[C@@H]32)C1 [Compound 19] — 4.9-fold higher, 79 µL/min/mg
- C[C@@]1(O)CC[C@H]2[C@H](CC[C@@H]3[C@@H]2CC[C@]2(C)[C@@H](C(=O)Cn4cnn(C5CCCCC5)c4=O)CC[C@@H]32)C1 [Compound 30] — 11-fold higher, 183 µL/min/mg
